Consider 4 compounds from patent US10852302B2, “Method for evaluation of function of phagocyte” (MOCHIDA PHARMACEUTICAL CO., LTD., priority 2008, dated 2020).

Type in all cases: cell-based
For test [1], the system named is human peripheral blood granulocyte. The experiment in a line: Action of phagocytosis inhibitors on sCD14-ST production by human granulocyte stimulated with E. coli. As to conditions: inhibitor preincubated 37° C. 1 hour, then 30 times by cell count of E. coli, 2 hours (FIG. 9). The protocol:
Granulocyte fraction was prepared from peripheral blood collected from a healthy human donor by density-gradient centrifugation using two layers each having a specific gravity of d=1.077 and d=1.119.
Various leukocyte stimulants were added to the granulocyte to evaluate the amount of sCD14-ST produced. More specifically, human peripheral blood granulocyte collected in Example 7-(1) was suspended in RPMI1640 culture containing 10% healthy human serum, 2 mM Glutamin, 10 mM HEPES, and 10 ng/ml G-CSF (SIGMA R8758) to a cell concentration of 0.5×10^7 cells/mL, and added to the wells of a 96 well culture plate (Nunclon Surface, Nunc) at 100 μL/well. The granulocyte was incubated overnight at 37° C. in the presence of 5% carbon dioxide. Next, various stimulants were adjusted to 1.5 fold concentration with HBSS buffer containing 10% healthy human serum, 2 mM Glutamin, and 10 mM HEPES, and added to the well at 200 μL/well. After incubating at 37° C. for 2 hours, the supernatant was collected by centrifugation, and human sCD14-ST was measured by using the assay kit described in Example 7-(3) of WO 2005/108429. More specifically, the sandwich assay kit used was the one containing the antibody which binds to the peptide consisting the amino acid sequence of 53rd to 68th amino acid residue of the human CD14 (S68 antibody), which specifically recognizes the human sCD14-ST. […]

Test [2] deals with granulocyte from rabbit peritoneal cavity. The experiment in a line: Action of phagocytosis inhibitors on sCD14-ST production by rabbit granulocyte stimulated with E. coli. As to conditions: inhibitor preincubated 37° C. 30 minutes, then 20 times by cell count of E. coli, 2 hours (FIG. 6). The protocol: (§1) Two step sandwich ELISA system was constructed by using the F1301-9-1 antibody produced in Example 1-(4) for the solid phase antibody, and the F1258-7-2 Fab′-HRP antibody prepared in Example 3-(1) for the labeling antibody. More specifically, the F1301-9-1 antibody was diluted with D-PBS (pH 7.4) to 10 μg/mL, and added to the wells of immunoplate (Maxisorb, Nunc) at 50 μL/well. After allowing the reaction to proceed overnight at 4° C., the well was washed 5 times with ion exchanged water. D-PBS (pH 7.4) containing 5% StabilGuard (SurModics) and 0.1% Tween 20 was added to the wells at 200 μL/well for blocking. Next, the specimen was diluted by using 150 mM phosphate buffer (pH 6.0) containing 5% normal rabbit serum (serum from which soluble CD14 antigen has been removed by using the rabbit CD14 affinity antibody column), 1% BSA, and 0.1% Tween 20 for dilution, and the diluted specimen was added to the well at 50 μL/well and allowed to react at 25° C. for 3 hours. After completion of the reaction, the well was washed 5 times with physiological saline containing 0.05% Tween 20. The F1258-7-2 Fab′-HRP was diluted with 75 mM phosphate buffer (pH 6.4) containing 4% rat serum and 0.05% Tween 20, and added to the well at 50 μL/well. […] The reaction was ceased with 0.5M sulfuric acid solution, and absorbance at 450 nm was measured by using a plate spectrophotometer (NJ-2100, Intermed Japan). […]

Test [3] relates to granulocyte from the rabbit peritoneal cavity. The experiment in a line: High molecular weight sCD14 production by rabbit granulocyte stimulated with leukocyte stimulants. Particulars: stimulant, kit for high molecular weight sCD14 (R&D) (FIG. 5).
Test [4] shares this test system. The experiment in a line: sCD14-ST production by rabbit peritoneal granulocyte stimulated with leukocyte stimulants. As to conditions: rabbit granulocyte 1×10^7 cells/mL, stimulant, 37° C. for 2 hours, supernatant, sandwich ELISA (FIG. 4). Here is the method:
as §1, with “hours.” for “hours. After completion of the reaction, the well was washed 5 times with physiological saline containing 0.05% Tween 20. The F1258-7-2 Fab′-HRP was diluted with 75 mM phosphate buffer (pH 6.4) containing 4% rat serum and 0.05% Tween 20, and added to the well at 50 μL/well.”
Various leukocyte stimulants were added to the granulocyte to evaluate the amount of sCD14-ST produced. […] After incubating at 37° C. for 2 hours, the supernatant was collected by centrifugation and sCD14-ST was measured by the assay system of Example 3-(2).

For the compound `C=C1[C@@H](C)[C@H]2[C@H](Cc3ccccc3)NC(=O)[C@]23[C@H](OC(C)=O)/C=C/[C@@](C)(O)C(=O)[C@@H](C)C/C=C/[C@H]3[C@@H]1O` [Cytochalasin D], in test [1], the “sCD14-ST production (effect of inhibitor)” value was “inhibited the sCD14-ST production”. Moreover, the “Production of the rabbit sCD14-ST (effect of inhibitor)” value in test [2] is “inhibited”.

For the compound `CCCCCCCCCCCCCC(=O)O[C@@H]1[C@@H](C)[C@@]2(O)[C@@H](C=C(CO)C[C@]3(O)C(=O)C(C)=C[C@@H]23)[C@@H]2C(C)(C)[C@]12OC(C)=O` [PMA, phorbol myristate acetate], the “production of the high molecular weight sCD14” value in test [3] is reported as “increase in the production of the high molecular weight sCD14 was recognized”. Further, in test [4], the sCD14-ST production entry is recorded as “increase in the sCD14-ST was not recognized”.

As for `CSCC[C@H](NC=O)C(=O)N[C@@H](CC(C)C)C(=O)N[C@@H](Cc1ccccc1)C(=O)O` [fMLP, formyl methionyl leucyl phenylalanine], the sCD14-ST production entry in test [4] is listed as “increase in the sCD14-ST was not recognized”.

For `COC[C@H]1OC(=O)c2coc3c2[C@@]1(C)C1=C(C3=O)[C@@H]2CCC(=O)[C@@]2(C)C[C@H]1OC(C)=O` [Wortomanin], in test [1], the “sCD14-ST production (effect of inhibitor)” value is “inhibited the sCD14-ST production”. In test [2], the “Production of the rabbit sCD14-ST (effect of inhibitor)” value is recorded as “inhibited”.
